The values below come from ChEMBL document CHEMBL1144818, “Antifouling activity of a dibrominated cyclopeptide from the marine sponge Geodia barretti” (J Nat Prod, 2008).

Test [1] concerns Amphibalanus improvisus. Kind of test: Reversal of antifouling activity in Balanus improvisus assessed as inhibition of cyprid larvae settlement at 10 uM after 48 hrs measured after transferring to fresh sea water. Format: functional, organism-based.
Test [2] has as its system Amphibalanus improvisus. Kind of test: Antifouling activity in Balanus improvisus assessed as inhibition of cyprid larvae settlement. The class given is functional, organism-based.
The target in test [3] is 5-hydroxytryptamine receptor 2A (Homo sapiens) (UniProt P28223). As to the kind of experiment: Binding affinity to human 5HT2A receptor expressed in HEK293 cells. The class given is cell-based.
5-hydroxytryptamine receptor 2A (Homo sapiens), sequence (P28223 whole entry): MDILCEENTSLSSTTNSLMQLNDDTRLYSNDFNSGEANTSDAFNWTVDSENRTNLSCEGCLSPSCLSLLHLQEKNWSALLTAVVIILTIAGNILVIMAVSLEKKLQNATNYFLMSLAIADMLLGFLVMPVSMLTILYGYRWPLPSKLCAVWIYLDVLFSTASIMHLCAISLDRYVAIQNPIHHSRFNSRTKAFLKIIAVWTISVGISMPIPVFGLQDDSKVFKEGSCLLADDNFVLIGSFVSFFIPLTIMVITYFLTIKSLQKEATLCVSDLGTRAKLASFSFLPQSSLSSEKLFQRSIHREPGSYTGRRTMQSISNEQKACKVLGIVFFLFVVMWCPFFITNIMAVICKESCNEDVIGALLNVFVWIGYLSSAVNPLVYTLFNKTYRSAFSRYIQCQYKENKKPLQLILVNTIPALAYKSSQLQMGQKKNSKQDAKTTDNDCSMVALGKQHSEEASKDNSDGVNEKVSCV
In test [4] the target is T1, 5-hydroxytryptamine receptor 2C (Homo sapiens) (UniProt P28335).
T1 sequence (whole entry): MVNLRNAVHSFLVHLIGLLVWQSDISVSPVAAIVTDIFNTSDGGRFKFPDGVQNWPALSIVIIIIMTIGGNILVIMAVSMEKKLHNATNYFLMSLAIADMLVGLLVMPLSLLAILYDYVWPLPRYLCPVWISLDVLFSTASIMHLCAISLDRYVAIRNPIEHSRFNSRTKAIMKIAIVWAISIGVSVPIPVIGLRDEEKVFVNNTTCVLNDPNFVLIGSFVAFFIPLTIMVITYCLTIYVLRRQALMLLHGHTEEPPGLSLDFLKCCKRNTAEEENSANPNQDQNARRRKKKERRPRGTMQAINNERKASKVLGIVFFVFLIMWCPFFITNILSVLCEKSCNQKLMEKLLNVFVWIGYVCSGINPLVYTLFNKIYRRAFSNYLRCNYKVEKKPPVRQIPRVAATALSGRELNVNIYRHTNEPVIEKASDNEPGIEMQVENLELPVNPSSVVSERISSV
Kind of test: Binding affinity to human 5HT2C receptor expressed in HEK293 cells. The class given is cell-based.

For test [5], the target named is 5-hydroxytryptamine receptor 4 (Homo sapiens) (UniProt Q13639). As to the kind of experiment: Binding affinity to human 5HT4 receptor expressed in HEK293 cells. Format: cell-based.
5-hydroxytryptamine receptor 4 (Homo sapiens), sequence (Q13639 whole entry): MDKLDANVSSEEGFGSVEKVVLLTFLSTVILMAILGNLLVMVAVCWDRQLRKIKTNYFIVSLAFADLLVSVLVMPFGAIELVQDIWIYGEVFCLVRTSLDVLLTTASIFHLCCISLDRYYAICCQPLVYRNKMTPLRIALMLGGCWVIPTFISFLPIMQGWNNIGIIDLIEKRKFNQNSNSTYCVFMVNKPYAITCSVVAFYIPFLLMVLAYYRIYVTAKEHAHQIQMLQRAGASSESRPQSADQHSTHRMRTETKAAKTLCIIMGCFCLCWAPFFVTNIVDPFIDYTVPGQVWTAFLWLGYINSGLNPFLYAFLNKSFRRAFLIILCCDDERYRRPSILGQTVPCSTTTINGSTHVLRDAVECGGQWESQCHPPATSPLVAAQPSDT
Test [6] has the same target. Kind of test: Binding affinity to human 5HT4 receptor expressed in HEK293 cells below 10 uM. The class given is cell-based.

Activity calls are given as the source filed them. No cut-off for these calls is given here.

Turning to `N=C(N)NCCC[C@@H]1NC(=O)C(C(O)(c2c[nH]c3cc(Br)ccc23)c2c(Br)ccc3c(=O)o[nH]c23)NC1=O` (stereo partly specified), the result in the test on Amphibalanus improvisus [1] was Active. Moreover, in the test on Amphibalanus improvisus [2], the EC50 (as a rule, the concentration that produces a half-maximal response) came out at 15 nM. Further, the outcome in test [3], in test [4] and in test [5] was inactive.

`N=C(N)NCCC[C@@H]1NC(=O)C(Cc2c[nH]c3cc(Br)ccc23)NC1=O` (stereo partly specified): in test [6], the outcome was Active.
